Assays:
[1] = system: human or mouse tumor cells; settings: Patent Document 1, Non-Patent Documents 1 and 2; cited from earlier work
[2] = Patent Document 1, Non-Patent Documents 1 and 2; cited from earlier work
[3] = Stability test: change of crystal form by powder X-ray diffraction after storage; format: physicochemical; settings: 30 days
Source text: (§1) The powder X-ray diffraction data were obtained by irradiating the crystal with CuKα ray (1.541 Å) using an X-ray diffraction apparatus (trade name: PW3050, manufactured by Koninklijke Philips Electronics N.V.), and detecting the angles using a vertical goniometer. The type I and type II crystal powders were respectively spread uniformly on a glass petri dish, and an aluminum foil (or a transparent resin film, for the purpose of storage under light exposure conditions) which was appropriately perforated as vent holes therein was used as a lid, to prepare test samples. These samples were respectively stored for 30 days under four kinds of conditions such as [60° C.], [40° C./relative humidity (RH) 75%], [25° C./relative humidity (RH) 60%, light exposure 2000 lx·hr], and [25° C./relative humidity (RH) 60%, light shading], and then the samples were tested using high performance liquid chromatography (HPLC) and powder X-ray diffraction (XRD). For powder X-ray diffraction (XRD), the analysis was carried out as described above.

[4] = Stability test: content of total analogues by HPLC after storage; format: physicochemical; settings: for Total analogues (%), amount of increase from the initial value: 30 days vs initial; for Total analogues (%), 10 days: storage 10 days; for Total analogues (%), 18 days: storage 18 days; for Total analogues (%), 30 days: storage 30 days; for Increase in the total analogues: stability test under various conditions (humidification and exposure), 30 days
Method: as §1, with “The” for “The powder X-ray diffraction data were obtained by irradiating the crystal with CuKα ray (1.541 Å) using an X-ray diffraction apparatus (trade name: PW3050, manufactured by Koninklijke Philips Electronics N.V.), and detecting the angles using a vertical goniometer. The”, “(XRD).” for “(XRD). For powder X-ray diffraction (XRD), the analysis was carried out as described above.”
For the HPLC analysis, 22.9 mg of the sample was dissolved in 10 mL of 0.01 mol/L hydrochloric acid, and then the content of analogues in the crystal was measured under the following conditions.
Column: Synergi Hydro-RP 80A Phenomenex (φ4.6 mm×25 cm, 4 μm); temperature 25° C.
Mobile phase: 2.05 g of potassium dihydrogen phosphate is dissolved in 3000 mL of water, and phosphoric acid is added to the solution to adjust the pH to 3.0. The mobile phase is prepared by adding 60 mL of methanol to 2940 mL of the solution liquid.
Flow rate: Approximately 1.0 mL/min
Detector: Ultraviolet absorptiometer (measurement wavelength 254 nm)
Standard Sample: • 1-(2′-cyano-2′-deoxy-β-D-arabinofuranosyl)cytosine monohydrochloride
The term “total analogues” refers to the substances detected other than 1-(2′-cyano-2′-deoxy-β-D-arabinofuranosyl)cytosine monohydrochloride), and the term “total analogues (%)” refers to the content ratio of total analogues with respect to the standard sample.

[5] = Heating of the crystal at 80° C. for 2 hours, crystal form by melting point and powder X-ray diffraction; format: physicochemical; settings: heated at 80° C. for 2 hours
[6] = 40° C./75% RH, listed as I, monohydrochloride
[7] = 25° C./60% RH/2000 lx, listed as I, monohydrochloride
[8] = 25° C./60% RH/Light shading, listed as I, monohydrochloride
[9] = 60° C., listed as I, monohydrochloride
[10] = 40° C./75% RH, listed as II, monohydrochloride
[11] = 25° C./60% RH/2000 lx, listed as II, monohydrochloride
[12] = 25° C./60% RH/Light shading, listed as II, monohydrochloride
[13] = 60° C., listed as II, monohydrochloride

For `Cl.N#CC1C(O)[C@@H](CO)O[C@H]1n1ccc(N)nc1=O` (stereo partly drawn) [compound (1), 1-(2′-cyano-2′-deoxy-β-D-arabinofuranosyl)cytosine monohydrochloride], the “In vitro suppressive effect for proliferation of tumor cells” value [1] is listed as “suppressive effect for proliferation” and the “Anti-tumor activity in vivo” value [2] is listed as “excellent anti-tumor activity”.

With `Cl.N#C[C@H]1[C@H](O)[C@@H](CO)O[C@H]1n1ccc(N)nc1=O` [type I crystal, 1-(2′-cyano-2′-deoxy-β-D-arabinofuranosyl)cytosine monohydrochloride] the “Change of crystal form from the initial value” (“Change … from the initial value” for short) ([3]; 25° C./60% RH/2000 lx) was “No change”, the “Change … from the initial value” ([3]; 25° C./60% RH/Light shading) was “No change” and the “Change … from the initial value” [3, 6] was “No change”. For the same molecule, the “Change … from the initial value” ([3]; 60° C.) was “No change”, the “Total analogues (%), amount of increase from the initial value” (“Total analogues (%), amount of increase” below) [4, 7] was 0.06% and the “Total analogues (%), initial” value [4, 7] was 0.07%. The “Total analogues (%), 10 days” value [4, 7] was 0.09%, the “Total analogues (%), 18 days” value [4, 7] was 0.09% and the “Total analogues (%), 30 days” value [4, 7] was 0.13%. For the same molecule, the “Total analogues (%), amount of increase” value [4, 8] was 0.00%, the “Total analogues (%), initial” value [4, 8] was 0.07% and the “Total analogues (%), 10 days” value [4, 8] was 0.07%. The “Total analogues (%), 18 days” value [4, 8] was 0.06%, the “Total analogues (%), 30 days” value [4, 8] was 0.07% and the “Total analogues (%), amount of increase” value [4, 6] was −0.02%. For the same molecule, the “Total analogues (%), initial” value [4, 6] was 0.07%, the “Total analogues (%), 10 days” value [4, 6] was 0.07% and the “Total analogues (%), 18 days” value [4, 6] was 0.06%. The “Total analogues (%), 30 days” value [4, 6] was 0.05%, the “Total analogues (%), amount of increase” value [4, 9] was 0.00% and the “Total analogues (%), initial” value [4, 9] was 0.07%. The “Total analogues (%), 10 days” value ([4]; 60° C.) was 0.06%, the “Total analogues (%), 18 days” value ([4]; 60° C.) was 0.07% and the “Total analogues (%), 30 days” value ([4]; 60° C.) was 0.07%. For the same molecule, the “Stability of the crystal form (overall conclusion)” value ([4]; conclusion from the stability test and crystal form conversions) was “superior stability as compared with the type II crystal or the type III crystal” and the “Increase in the total analogues” value [4] was “not recognized”.

With `Cl.N#CC1C(O)[C@@H](CO)O[C@H]1n1ccc(N)nc1=O` (stereo partly drawn) [type II crystal, 1-(2′-cyano-2′-deoxy-β-D-arabinofuranosyl)cytosine monohydrochloride] the “Change … from the initial value” ([3]; 25° C./60% RH/2000 lx) was “No change”, the “Change … from the initial value” [3, 10] was “Changed (II → I)” and the “Change … from the initial value” ([3]; 40° C./75% RH, monohydrochloride) was “converted to the type I crystal”. For the same molecule, the “Total analogues (%), amount of increase” value [4, 11] was 0.32%, the “Total analogues (%), initial” value [4, 11] was 0.06% and the “Total analogues (%), 10 days” value [4, 11] was 0.15%. For the same molecule, the “Total analogues (%), 18 days” value [4, 11] was 0.23%, the “Total analogues (%), 30 days” value [4, 11] was 0.38% and the “Total analogues (%), amount of increase” value [4, 12] was 0.03%. For the same molecule, the “Total analogues (%), initial” value [4, 12] was 0.06%, the “Total analogues (%), 10 days” value [4, 12] was 0.06% and the “Total analogues (%), 18 days” value [4, 12] was 0.07%. For the same molecule, the “Total analogues (%), 30 days” value [4, 12] was 0.09%, the “Total analogues (%), amount of increase” value [4, 10] was 0.10% and the “Total analogues (%), initial” value [4, 10] was 0.06%. The “Total analogues (%), 10 days” value [4, 10] was 0.06%, the “Total analogues (%), 18 days” value [4, 10] was 0.08% and the “Total analogues (%), 30 days” value [4, 10] was 0.16%. The “Total analogues (%), amount of increase” value [4, 13] was 0.01%, the “Total analogues (%), initial” value [4, 13] was 0.06% and the “Total analogues (%), 30 days” value ([4]; 60° C.) was 0.07%. The “Increase in the total analogues” value [4] was “not recognized”.

For `Cl.N#CC1C(O)[C@@H](CO)O[C@H]1n1ccc(N)nc1=O` (stereo partly drawn) [type III crystal, 1-(2′-cyano-2′-deoxy-β-D-arabinofuranosyl)cytosine monohydrochloride], the “Change of crystal form on heating” value [5] was “converted to the type I crystal”.
